Where a name gives a salt, the structure may show the parent alone. Read-outs that look alike come from different tables or passages of the source.
Key:
A549-mRuby cells = experiment: Drug screening: effect on cell growth (cell number day 4 / day 0); conditions: 10 μM drug; for Growth_1: number of cells at day 4 divided by number of cells at day 0 / toxic_1: repeat #1; for Growth_2: number of cells at day 4 divided by number of cells at day 0 / toxic_2: repeat #2
Summary of the method: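 A549 cells carrying an H2B-mRuby reporter were infected with OC43 at MOI 0.3 for 1 h at 33° C, then given drug at 10 μM final. Cell numbers were counted by imaging at day 0 and again at day 4 after 4 days at 33° C, 5% CO2, with the screen run twice.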

OC43 = experiment: Drug screening: OC43 nucleoprotein staining in infected A549-mRuby cells; type: cell-based, human beta coronavirus OC43; conditions: for activity at 10 µM: Betacoronavirus 1, OC43, 96 h
Summary of the method: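 A549 cells expressing H2B-mRuby infected with OC43 at MOI 0.3 for 1 h at 33° C, then drugs added at 10 μM final and incubated 4 days at 33° C. Viral nucleoprotein immunostained and imaged; intensity normalized to cell number and no-drug controls (=100). Hits reduced staining >3 SD in both repeats without toxicity.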

[1] = 10 μM drug, MOI 0.3, 4 days, OC43 staining normalized to no-drug controls, mean of the two screen repeats
[2] = 10 μM drug, MOI 0.3, 4 days, normalized to no-drug controls in the same plate, repeat #1
[3] = 10 μM drug, MOI 0.3, 4 days, normalized to no-drug controls in the same plate, repeat #2
[4] = 10 μM drug, MOI 0.3, 4 days, OC43 staining normalized to no-drug controls, mean of the two screen repeats, read-out: OC43_mean
[5] = 10 μM drug, MOI 0.3, 4 days, normalized to no-drug controls in the same plate, repeat #1, read-out: OC43_1: % staining of OC43 in screen repeat #1
[6] = 10 μM drug, MOI 0.3, 4 days, normalized to no-drug controls in the same plate, repeat #2, read-out: OC43_2: % staining of OC43 in screen repeat #2

Compound | Growth_1: number of cells at day 4 divided by number of cells at day 0 (A549-mRuby cells) | toxic_1 (A549-mRuby cells) | Growth_2: number of cells at day 4 divided by number of cells at day 0 (A549-mRuby cells) | toxic_2 (A549-mRuby cells) | OC43_mean (OC43; [1]) [%] | OC43_1: % staining of OC43 in screen repeat #1 (OC43; [2]) [%] | OC43_2: % staining of OC43 in screen repeat #2 (OC43; [3]) [%] | hit_1 (OC43; 10 μM drug, repeat #1) | hit_2 (OC43; 10 μM drug, repeat #2) | activity at 10 µM (OC43; [4]) [%] | activity at 10 µM (OC43; [5]) [%] | activity at 10 µM (OC43; [6]) [%] | hit_1 (OC43) | hit_2 (OC43) | activity at 10 µM (OC43; read-out: OC43_1: % staining of OC43 in screen repeat #1) [%] | activity at 10 µM (OC43; read-out: OC43_2: % staining of OC43 in screen repeat #2) [%] | activity at 10 µM (OC43; read-out: OC43_mean) [%]
COc1ccc(CN2CCN(C(c3ccc(F)cc3)c3ccc(F)cc3)CC2)c(OC)c1OC.Cl.Cl [Lomerizine 2HCl] | 4.7 | 0 | 5.3 | 0 | 39.9 | 56.5 | 23.3 | 1 | 1 |  |  |  |  |  |  |  | 
CN1[C@@H]2CC[C@H]1C[C@@H](OC(=O)c1c[nH]c3ccccc13)C2 [Tropisetron HCl] | 5.8 | 0 | 5.5 | 0 |  |  |  | 1 | 1 | 58 | 52.6 | 63.4 |  |  |  |  | 
CN1CCN(C2=Nc3cc(Cl)ccc3Nc3ccccc32)CC1 [Clozapine] | 4.6 | 0 | 4.3 | 0 |  |  |  | 1 | 1 | 31.3 | 15.8 | 46.9 |  |  |  |  | 
CN1CCCCC1CCN1c2ccccc2Sc2ccc([S+](C)[O-])cc21 (stereo not drawn) [Mesoridazine Besylate] | 4.7 | 0 | 4.7 | 0 |  |  |  | 1 | 1 | 20.3 | 15.6 | 25 |  |  |  |  | 
Cc1ccccc1C(OCCN(C)C)c1ccccc1 (stereo not drawn) [Orphenadrine Hydrochloride] | 4.6 | 0 | 5.1 | 0 |  |  |  | 1 | 1 | 37.6 | 11.7 | 63.6 |  |  |  |  | 
Ibutilide Fumarate | 4.8 | 0 | 4.8 | 0 | 54.4 | 45.9 | 63.0 | 1 | 1 |  |  |  |  |  |  |  | 
CCCC1O[C@@H]2C[C@H]3[C@@H]4CCC5=CC(=O)C=C[C@]5(C)[C@H]4[C@@H](O)C[C@]3(C)[C@]2(C(=O)CO)O1 (stereo partly drawn) [Budesonide] | 3.9 | 0 | 4.0 | 0 |  |  |  | 1 | 1 | 28.8 | 20.8 | 36.9 |  |  |  |  | 
CC(CN1c2ccccc2Sc2ccccc21)N(C)C (stereo not drawn) [Promethazine HCl] | 3.0 | 0 | 2.4 | 0 |  |  |  | 1 | 1 | 24.4 | 19.4 | 29.5 |  |  |  |  | 
CCC(=O)O[C@H]1[C@H](O[C@@H]2[C@@H](C)[C@H](O[C@H]3C[C@@](C)(OC)[C@@H](O)[C@H](C)O3)[C@@H](C)C(=O)O[C@H](CC)[C@@](C)(O)[C@H](O)[C@@H](C)C(=O)[C@H](C)C[C@@]2(C)O)O[C@H](C)C[C@@H]1N(C)C [Erythromycin estolate] | 4.5 | 0 | 4.8 | 0 |  |  |  | 1 | 1 | 20.1 | 24.2 | 15.9 |  |  |  |  | 
C[C@@H]1[C@H](O)[C@@H](C)/C=C/C=C/CC/C=C/C=C/C=C/C=C/C(O[C@H]2O[C@H](C)[C@@H](O)[C@H](N)[C@@H]2O)CC2O[C@](O)(CC(O)C(O)CCC(O)CC(O)CC(O)CC(=O)O[C@H]1C)CC(O)C2C(=O)O (stereo partly drawn) [Nystatin (Fungicidin), Nystatin] | 4.6 | 0 | 5.9 | 0 | 23.3 | 27.8 | 18.8 | 1 | 1 |  |  |  |  |  |  |  | 
COc1cc2ncnc(Nc3ccc(F)c(Cl)c3)c2cc1OCCCN1CCOCC1 [Gefitinib (ZD1839), Gefitinib] | 3.4 |  | 3.7 |  | 35.5 | 39.7 | 31.3 |  |  |  |  |  |  |  |  |  | 
CCCCc1oc2ccccc2c1C(=O)c1cc(I)c(OCCN(CC)CC)c(I)c1 [Amiodarone HCl] | 4.6 |  | 5.4 |  |  |  |  | 1 | 1 | 22.8 | 18.8 | 26.9 |  |  |  |  | 
OCCOCCN1CCN(C2=Nc3ccccc3Sc3ccccc32)CC1 [Quetiapine Fumarate] | 3.6 | 0 | 3.7 | 0 |  |  |  |  |  |  |  |  | 1 | 1 | 34.5 | 61.5 | 48
CC(C)(O)CNc1nc(Nc2ccnc(C(F)(F)F)c2)nc(-c2cccc(C(F)(F)F)n2)n1 [Enasidenib (AG-221), Enasidenib] | 5.2 | 0 | 4.8 | 0 |  |  |  | 1 | 1 | 26.1 | 23.3 | 29 |  |  |  |  | 
CN(C)CCC=C1c2ccccc2CCc2ccccc21 [Amitriptyline HCl] | 3.7 | 0 | 4.1 | 0 |  |  |  | 1 | 1 | 22.8 | 11.2 | 34.3 |  |  |  |  | 
O=C(Nc1ccccc1)OCC(CN1CCCCC1)OC(=O)Nc1ccccc1 (stereo not drawn) [Diperodon HCl] | 4.6 | 0 | 4.4 | 0 |  |  |  | 1 | 1 | 42.9 | 24.2 | 61.6 |  |  |  |  | 
